Experiments:
[1] = system: guinea pigs; assay: Antitussive effect, Mechanical Stimulus Method; assay type: in vivo, guinea pig
From the text: (§1) Results of comparative tests where the medicinal effects of compounds of this invention were compared with those of known compounds such as pentazocine and codeine phosphate by employing mice and guinea pigs as the test animals are shown in the following Tables I and II.
(§2) Comparison of Antitusive Effects
Mechanical Stimulus Method^1)
1) Takagi et al modification [Journal of the Pharmaceutical Society of
Japan, 80, 1497 (1960)] of the test method of H. Konzett and E. Rothlin
[Experientia, 10, 472 (1954)], in which urethane was hypodermically
injected (15 mg/Kg) into guinea pigs and swine hairs were inserted into
the trachea to impart stimulus.

[2] = system: mice of the ddN-series; assay: Analgesic test, Chemical Stimulus Method (Writhing Method); assay type: in vivo, mouse; parameters: scale not given here; conditions: interabdominal injection, comparative value, scale not given
Protocol: as §1
Chemical Stimulus Method^1)
(interabdominal injection)
(§3) Tested Animal: mice of the ddN-series, .male., 20 ± 1 experimental
(§4) Conditions: temperature of 24 ± 1° C., relative humidity of 65
^1) R. Koster, M. Anderson and E. J. De Beer, Federation Proceedings, […]

[3] = Acute Toxicity; conditions: in vivo; mouse, intravenous injection
Protocol: as §3, §4

[4] = system: mice of the ddN-series; assay: Analgesic test, Heat Stimulus Method (Hot Plate Method); assay type: in vivo, mouse; parameters: reference not given here; conditions: hypodermic injection, comparative value, scale not given
Protocol: as §1
Heat Stimulus Method^2)
as §3, §4
^2) G. Woolfe and A. D. Mac Donald; Journal of Pharmacology and […]

[5] = system: mice of the ddN-series; assay: Analgesic test, Pressure Stimulus Method; assay type: in vivo, mouse; conditions: hypodermic injection, comparative value, pentazocine 1.0
Protocol: as §1
Pressure Stimulus Method^3)
R (hypodermic injection)
as §3, §4
^3) A. F. Green, P. A. Yound and E. I. Godfrey; British Journal of
Pharmacology and Chemotherapy, 6, 572 (1951)

[6] = Solubility in water
[7] = system: guinea pigs; assay: Antitussive effect, Chemical Stimulus Method (SO2 gas); assay type: in vivo, guinea pig; conditions: guinea pigs, SO2 gas
From the text: as §1, §2
2) Takagi et al modification [Journal of Pharmaceutical Society of Japan,
80, 1497 (1960)] of the test method of H. Friebel, C. Reichle and A. V.
Gravenitz [Archiv Fur experimentalle Phathologie und Pharmakologie,
Naunyn-Schmiede-berg's, 224,384 (1955)], in which the test compound was
hypodermically injected into guinea pigs, 30 minutes after the injection
the quinea pigs were put into a desiccator filled with SO2 gas and
kept in the desiccator for 1 minute, then the guinea pigs were put into
another vessel and the degree of coughing was examined.

SMILES: C=CCN1CCC2CC(C1)C(O)c1ccccc12 (stereo not drawn) [R=H, R1=H, R2=H, CH2R3=CH2CHCH2, R4=OH, 4-allyl-2,3,4,5,6,7-hexahydro-1,6-methano-1H-4-benzazonin-7-ol]
- ED50 ([1]; Cavia porcellus, swine hairs inserted into the trachea): 18.9 mg/kg
- Effect Ratio to Codeine Phosphate, Mechanical Stimulus Method ([1]; codeine phosphate = 100): 76.6
- Chemical Stimulus Method (Writhing Method) [2]: 1.2
- LD50 [3]: 58 mg/kg
- Heat Stimulus Method (Hot Plate Method) [4]: 1.4
- Pressure Stimulus Method [5]: 1.4
- solubility in water [6]: water soluble
- ED50 ([7]; Cavia porcellus, sc, 0.5 h, hypodermic injection, 1 minute, 30 minutes after injection, read-out: ED50, Chemical Stimulus Method (antitussive)): 15.3 mg/kg
- Effect Ratio to Codeine Phosphate, Chemical Stimulus Method ([7]; codeine phosphate = 100): 86.7

— patent US4008219A, “4-Benzazonine derivatives and process for preparation thereof” (Nihon Iyakuhin Kogyo Co., Ltd., priority 1973, dated 1977)
